Drawing on patent US9315494B2, “Alkyl-amide-substituted pyridyl compounds useful as modulators of IL-12, IL-23 and/or IFNα responses” (Bristol-Myers Squibb Company, priority 2012, dated 2016), this text covers EC50 and IC50 for 46 molecules.

As a reminder, the EC50 is the concentration at which the effect is half-maximal.

Read-outs that look alike come from different tables or passages of the source.

Assay [1] deals with T1, recombinantly expressed His-tagged protein corresponding to amino acids 575-869 of human Tyk2 (Homo sapiens, UniProt P29597).
T1 construct: corresponding to amino acids 575-869 of human Tyk2; made in house
T1 sequence (P29597 575-869): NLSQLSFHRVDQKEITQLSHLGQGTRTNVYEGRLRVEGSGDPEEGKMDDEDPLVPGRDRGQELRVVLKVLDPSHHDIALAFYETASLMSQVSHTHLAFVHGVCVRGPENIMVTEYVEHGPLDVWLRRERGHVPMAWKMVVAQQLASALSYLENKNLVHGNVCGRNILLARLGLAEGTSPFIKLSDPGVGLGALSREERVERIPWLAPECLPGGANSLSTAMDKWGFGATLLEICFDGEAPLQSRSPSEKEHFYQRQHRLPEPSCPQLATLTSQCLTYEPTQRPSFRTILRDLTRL
Kind of assay: Probe displacement assay (scintillation proximity, [3H] probe). The assay is classed as binding. The note with it: 2.5 nM Tyk2 (575-869), 40 nM radiolabeled probe, 30 minutes at room temperature. The procedure:
The probe displacement assay is conducted as follows: In a […], test compounds along with recombinantly expressed His-tagged protein corresponding to amino acids 575-869 of human Tyk2 (sequence shown below) at 2.5 nM, 40 nM ((R)-N-(1-(3-(8-methyl-5-(methylamino)-8H-imidazo[4,5-d]thiazolo[5,4-b]pyridin-2-yl)phenyl)ethyl)-2-([^3H]methylsulfonyl)benzamide) (preparation described below) and 80 μg/mL Copper His-Tag scintillation proximity assay beads (Perkin Elmer, Catalog #RPNQ0095) in 50 mM HEPES, pH 7.5, containing 100 μg/mL bovine serum albumin and 5% DMSO were incubated for 30 minutes at room temperature. The amount of radiolabeled probe (preparation described below) bound to Tyk2 was then quantified by scintillation counting, and the inhibition by the test compound calculated by comparison to wells either with no inhibitor (0% inhibition) or without Tyk2 (100% inhibition).
Protein Sequence of recombinant Hig-tagged Tyk2 (575-869):
The preparation of radiolabeled probe, (R)-N-(1-(3-(8-methyl-5-(methylamino)-8H-imidazo[4,5-d]thiazolo[5,4-b]pyridin-2-yl)phenyl)ethyl)-2-([^3H]methylsulfonyl)benzamide, was performed as described below: […]
(In general: SPA uses beads or plates that emit light when radiolabelled molecules are held near them.)

For assay [2], the system named is IFNα-stimulated STAT-dependent luciferase reporter in Kit225 T cells. Kind of assay: Kit225 T cell assay, IFNα stimulated STAT-dependent luciferase reporter. The assay is classed as cell-based, human. The essentials: (§1)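 Stimulus was either 200 U/mL human recombinant IFNα or 20 ng/mL IL-23, applied for 5-6 h to reporter-bearing Kit225 T cells grown in RPMI/10% FBS. Luciferase expression then quantified by luminescent assay.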

The test system of assay [3] is IL-23-stimulated STAT-dependent luciferase reporter in Kit225 T cells. Nature of the assay: Kit225 T cell assay, IL-23 stimulated STAT-dependent luciferase reporter. It counts as cell-based, human. The essentials: as §1
Background: A reporter such as luciferase makes a cellular process visible.

[4] abbreviates: Kit225 T cells, 200 U/mL human recombinant IFNα, 5-6 hours, luciferase, read-out: IFNα (Kit225 T Cell Inhibition Data).
Where [5] appears, read: Kit225 T cells, 20 ng/mL human recombinant IL-23, 5-6 hours, luciferase, read-out: IL23 (Kit225 T Cell Inhibition Data).
[6] abbreviates: Homo sapiens, KIT225, read-out: IFNα (Kit225 T Cell Inhibition Data).

Take `CNC(=O)c1cnc(Nc2ccc(F)cn2)cc1Nc1ccccc1S(=O)(=O)N(C)C` [Example 302]: the EC50 in assay [1] was found to be 182 nM. In addition, the IC50 in assay [2] (setting [4]) was 2090 nM; in assay [3] (setting [5]) it was 4060 nM.
For `CNC(=O)c1cnc(Nc2cncc(C)n2)cc1Nc1ccccc1S(C)(=O)=O` [Example 42] the same measures were 8.2 nM, 140 nM and 260 nM.
Consider `CNC(=O)c1cnc(Nc2cc(C)nc(C)n2)cc1Nc1cccc(-c2cnn(C)c2)c1OC` [Example 395], for which, in assay [1], the EC50 came out at 3.1 nM. In addition, the IC50 amounted to 20 nM in assay [2] (setting [4]) and 30 nM in assay [3] (setting [5]).
As for `CNC(=O)c1cnc(Nc2ccc(N3CCOCC3)cn2)cc1Nc1ccccc1OC(F)F` [Example 228], the EC50 in assay [1] is 36.7 nM. Moreover, the IC50 in assay [2] (setting [4]) was 140 nM; in assay [3] (setting [5]), 144 nM.
For `CNC(=O)c1cnc(Nc2ccc(F)cn2)cc1Nc1ccccc1N(C)S(C)(=O)=O` [Example 426] the same measures were 4.2 nM, 10 nM and 10 nM.
On the same counts, the results for `CNC(=O)c1cnc(Nc2cc(CO)ccn2)cc1Nc1ccccc1C(N)=O` [Example 94] are 9.5 nM, 3430 nM and 3560 nM.
For `CNC(=O)c1cnc(Nc2ccc(F)cn2)cc1Nc1cc(Cl)ccc1OC` [Example 203] the same measures were 53.5 nM, 1170 nM and 1460 nM.
As to `CCn1cnc(-c2cccc(Nc3cc(Nc4cc(C)nc(C)n4)ncc3C(=O)NC)c2OC)n1` [Example 382], the EC50 in assay [1] turned out to be 4.6 nM. Also, the IC50 was found to be 5.07 nM in assay [2] (setting [4]) and 10 nM in assay [3] (setting [5]).
On the same counts, the results for `CNC(=O)c1cnc(Nc2cc(OC(C)C)ncn2)cc1Nc1ccccc1S(C)(=O)=O` [Example 422] are 5.7 nM, 180 nM and 310 nM.
On the same counts, the results for `CNC(=O)c1cnc(Nc2ccc(N3CCOCC3)cn2)cc1Nc1ccccc1CCO` [Example 224] are 597 nM, 4600 nM and 5610 nM.
On the same counts, the results for `CNC(=O)c1cnc(Nc2cc(C#N)ccn2)cc1Nc1cccc(F)c1C(N)=O` [Example 176] are 18.8 nM, 1020 nM and 1040 nM.
As for `[2H]C([2H])([2H])NC(=O)c1cnc(Nc2cc(C(C)(C)O)ccn2)cc1Nc1cccc(-c2ncc(F)cn2)c1OC` [Example 450], the 50% effective concentration (EC50) in assay [1] is 7.3 nM. Moreover, the IC50 in assay [2] (setting [4]) worked out at 10 nM; in assay [3] (setting [5]) it was 20 nM.
For `CNC(=O)c1cnc(Nc2cc(C)nc(C)n2)cc1Nc1cccc(-c2nnc(C)[nH]2)c1OC` [Example 365] the same measures were 4.8 nM, 10 nM and 10 nM.
For `CNC(=O)c1cnc(Nc2ccc(C)cn2)cc1Nc1cc(F)cc(F)c1OC` [Example 128] the same measures were 21.3 nM, 140 nM and 335 nM.
Take `CNC(=O)c1cnc(Nc2ccc3ccccc3n2)cc1NC1CCCC1` [Example 283]: in assay [1], the EC50 was 633 nM. In assay [2] (setting [6]), the IC50 stood at 12500 nM.
Regarding `CNC(=O)c1cnc(Nc2cc(C#N)ccn2)cc1Nc1ccccc1C(N)=O` [Example 84], the values for the IC50 in assay [2] (setting [4]) and in assay [3] (setting [5]) were 350 nM and 369 nM, respectively.
For `CNC(=O)c1cnc(Nc2cc(C)ccn2)cc1Nc1ccc(Cl)cc1OC` [Example 113] the same measures were 200 nM and 876 nM.
On the same counts, the results for `CNC(=O)c1cnc(Nc2cc(C3CCC3)[nH]n2)cc1Nc1ccccc1S(C)(=O)=O` [Example 445] are 320 nM and 530 nM.
On the same counts, the results for `CNC(=O)c1cnc(Nc2ccccn2)cc1Nc1ccccc1S(=O)(=O)C(F)(F)F` [Example 29] are 7980 nM and 7110 nM.
In the case of `CNC(=O)c1cnc(Nc2ccc(F)cn2)cc1Nc1ccc(C#N)cc1S(C)(=O)=O` [Example 310], the IC50 in assay [2] (setting [6]) was determined as 590 nM; in assay [3] (Homo sapiens, KIT225, read-out: IL23 (Kit225 T Cell Inhibition Data)), 1080 nM.
`CNC(=O)c1cnc(Nc2ccc(C#N)cn2)cc1Nc1ccccc1C(N)=O` [Example 92]: the IC50 came out at 1540 nM in assay [2] (setting [4]) and 3930 nM in assay [3] (setting [5]).
For `CNC(=O)c1cnc(Nc2cc(C)c(F)cn2)cc1Nc1ccccc1S(N)(=O)=O` [Example 431], the values for the IC50 in assay [2] (setting [4]) and in assay [3] (setting [5]) were 80 nM and 40 nM, respectively.
In the case of `CNC(=O)c1cnc(Nc2ccc(N3CCCC3=O)cn2)cc1Nc1ccc(F)cc1OC` [Example 127], the values for the IC50 in assay [2] (setting [4]) and in assay [3] (setting [5]) were 470 nM and 852 nM, respectively.
On the same counts, the results for `CNC(=O)c1cnc(Nc2cc(C)c(F)cn2)cc1Nc1cccc(C(=O)NCCCOC)c1OC` [Example 349] are 60 nM and 60 nM.
For `CNC(=O)c1cnc(Nc2ccncn2)cc1Nc1ccccc1S(C)(=O)=O` [Example 37] the same measures were 1150 nM and 690 nM.
On the same counts, the results for `CNC(=O)c1cnc(Nc2ccc(F)cn2)cc1Nc1ccc(C(=O)N2CCOCC2)cc1OC` [Example 241] are 500 nM and 902 nM.
For `[2H]C([2H])([2H])NC(=O)c1cnc(Nc2cc(CO)ccn2)cc1Nc1cccc(-c2csc(C)n2)c1OC` [Example 405], the IC50 in assay [2] (setting [4]) was 10 nM; in assay [3] (setting [5]), 20 nM.
For `CNC(=O)c1cnc(Nc2cc(C)c(F)cn2)cc1Nc1cccc(-c2nnc[nH]2)c1OC` [Example 360], the IC50 in assay [2] (setting [4]) stood at 7.74 nM; in assay [3] (setting [5]), 30 nM.
Turning to `CNC(=O)c1cnc(Nc2cccc(F)n2)cc1Nc1cc(F)ccc1S(C)(=O)=O` [Example 54], the values for the IC50 in assay [2] (setting [4]) and in assay [3] (setting [5]) were 160 nM and 190 nM, respectively.
As to `CNC(=O)c1cnc(Nc2ccc(F)cn2)cc1Nc1ccc(F)cc1SC` [Example 207], the IC50 in assay [2] (setting [4]) worked out at 2040 nM; in assay [3] (setting [5]), 3300 nM.
For `CCNC(=O)c1cnc(Nc2ccc(F)cn2)cc1Nc1ccccc1S(C)(=O)=O` [Example 297] the same measures were 600 nM and 250 nM.
As for `CNC(=O)c1cnc(Nc2cnc(OC)cn2)cc1Nc1ccccc1S(C)(=O)=O` [Example 433], the IC50 was 220 nM in assay [2] (setting [4]) and 290 nM in assay [3] (setting [5]).
In the case of `CNC(=O)c1cnc(Nc2ccc3ccccc3n2)cc1NC1CCCC1(C)F` (stereo not shown) [Example 284], the results for the IC50 in assay [2] (setting [4]) and in assay [3] (setting [5]) were 3630 nM and 3000 nM, respectively.
For `CNC(=O)c1cnc(Nc2cc(C)nc(C)n2)cc1Nc1cccc(-c2ncn(CC(C)(C)O)n2)c1OC` [Example 384] the same measures were 170 nM and 120 nM.
Turning to `CNC(=O)c1cnc(Nc2cc(C(=O)NC3CC3)ccn2)cc1Nc1ccc(Cl)cc1OC` [Example 259], the IC50 in assay [2] (setting [4]) worked out at 200 nM; in assay [3] (setting [5]) it was 433 nM.
With `CNC(=O)c1cnc(Nc2ccc3ccccc3n2)cc1NC1CCC(F)(F)CC1O` (stereo not shown) [Example 293], the IC50 in assay [2] (setting [4]) amounted to 11400 nM; in assay [3] (setting [5]) it was 4780 nM.
On the same counts, the results for `CNC(=O)c1cnc(Nc2cc(F)ccn2)cc1Nc1cc(F)ccc1S(C)(=O)=O` [Example 57] are 190 nM and 160 nM.
On the same counts, the results for `CNC(=O)c1cnc(Nc2cc3ccccc3cn2)cc1Nc1ccc(F)cc1OC` [Example 146] are 1450 nM and 2160 nM.
Take `CNC(=O)c1cnc(Nc2ccc(F)cn2)cc1Nc1ccc(-c2nnco2)cc1S(C)(=O)=O` [Example 312]: the IC50 was 1020 nM in assay [2] (setting [4]) and 590 nM in assay [3] (setting [5]).
As to `CNC(=O)c1cnc(Nc2cc(NC)nc(C)n2)cc1Nc1cccnc1OC` [Example 403], the IC50 came out at 290 nM in assay [2] (setting [4]) and 240 nM in assay [3] (setting [5]).
For `CNC(=O)c1cnc(Nc2cc(C(=O)N3CCCC3)ccn2)cc1Nc1ccc(F)cc1OC` [Example 268] the same measures were 740 nM and 785 nM.
On to `CNC(=O)c1cnc(Nc2cc(C)c(F)cn2)cc1Nc1cccc(-c2nnn[nH]2)c1OC` [Example 390], for which the IC50 in assay [2] (setting [4]) was 330 nM; in assay [3] (setting [5]), 1030 nM.
On the same counts, the results for `CNC(=O)c1cnc(Nc2ccc(F)cn2)cc1Nc1ccc(S(C)(=O)=O)cc1OC` [Example 44] are 1460 nM and 1240 nM.
Take `CNC(=O)c1cnc(Nc2cc(C)nc(C)n2)cc1Nc1cccc(-c2ncn(CCF)n2)c1OC` [Example 377]: the IC50 in assay [2] (setting [4]) and in assay [3] (setting [5]) was 20 nM each time.
As for `CNC(=O)c1cnc(Nc2ccc(C#N)cn2)cc1Nc1cc(F)cc(F)c1OC` [Example 145], the IC50 in assay [2] (setting [4]) was determined as 420 nM; in assay [3] (setting [5]) it was 794 nM.
Turning to `CCCNC(=O)c1cccc(Nc2cc(Nc3cc(C)c(F)cn3)ncc2C(=O)NC)c1OC` [Example 339], the IC50 in assay [2] (setting [4]) came to 30 nM; in assay [3] (setting [5]), 50 nM.
